Earlier results as cited in PubChem BioAssay AID1259409 (Chemical Carcinogenesis Research Information System (CCRIS), 2018).

Test system: rodent chemically induced tumor inhibition, incidence and multiplicity
Experiment: CCRIS tumor inhibitor studies
Conditions: Carcinogen: 7,12-DIMETHYLBENZ[A]ANTHRACENE, 57-97-6, Route [Inhibitor]: ORAL, Promoter: NONE USED

O=[Se](O)O
tumour outcome (control, treated, inhibition, significance) (Dose [Inhibitor]: 0, 0.5 UG/G IN DIET BEGINNING 2 WK PRIOR TO CARCINOGEN DOSE AND CONTINUING FOR 2 WK POST CARCINOGEN DOSE FOLLOWED BY BAS, Species: RAT, Strain/Sex: SPRAGUE-DAWLEY/FEMALE, Target Tissue: Type of Lesion: MAMMARY GLAND: TUMOR, Dose [Carcinogen]: 5 MG/KG): 52%, 32%, 38%, not calculated
tumour outcome (control, treated, inhibition, significance) (Dose [Inhibitor]: 0, 1 UG/G IN DIET BEGINNING 2 WK PRIOR TO CARCINOGEN DOSE AND CONTINUING FOR 2 WK POST CARCINOGEN DOSE FOLLOWED BY BASAL, Species: RAT, Strain/Sex: SPRAGUE-DAWLEY/FEMALE, Target Tissue: Type of Lesion: MAMMARY GLAND: TUMOR, Dose [Carcinogen]: 5 MG/KG): 52%, 24%, 54%, not calculated
tumour outcome (control, treated, inhibition, significance) (Dose [Inhibitor]: 0, 2 PPM (AS SELENIUM) IN DIET BEGINNING 2 WK PRIOR TO CARCINOGEN DOSE AND CONTINUING FOR DURATION OF STUDY (STUDY DURAT, Species: RAT, Strain/Sex: SPRAGUE-DAWLEY/FEMALE, Target Tissue: Type of Lesion: MAMMARY GLAND: ADENOCARCINOMA, Dose [Carcinogen]: 10 MG ONCE AT 55 D OF AGE): 88%, 72%, 18%, not significant
tumour outcome (control, treated, inhibition, significance) (Dose [Inhibitor]: 0, 2 UG/G IN DIET BEGINNING 2 WK PRIOR TO CARCINOGEN DOSE AND CONTINUING FOR 2 WK POST CARCINOGEN DOSE FOLLOWED BY BASAL, Species: RAT, Strain/Sex: SPRAGUE-DAWLEY/FEMALE, Target Tissue: Type of Lesion: MAMMARY GLAND: TUMOR, Dose [Carcinogen]: 5 MG/KG): 52%, 14%, 73%, not calculated
tumour outcome (control, treated, inhibition, significance) (Dose [Inhibitor]: 0, 2.5 MG/KG IN DIET TO ANIMALS ON VITAMIN E ADEQUATE DIETS (50 MG/KG) (STUDY DURATION: 20 WK), Species: RAT, Strain/Sex: SPRAGUE-DAWLEY/FEMALE, Target Tissue: Type of Lesion: MAMMARY GLAND: TUMOR, Dose [Carcinogen]: 5 MG ONCE AT 50 D OF AGE): 19/25 (76%), 10/25 (40%), 47%, not calculated
tumour outcome (control, treated, inhibition, significance) (Dose [Inhibitor]: 0, 2.5 MG/KG IN DIET TO ANIMALS ON VITAMIN E DEFICIENT DIETS (10 MG/KG) (STUDY DURATION: 20 WK), Species: RAT, Strain/Sex: SPRAGUE-DAWLEY/FEMALE, Target Tissue: Type of Lesion: MAMMARY GLAND: TUMOR, Dose [Carcinogen]: 5 MG ONCE AT 50 D AGE): 21/25 (84%), 17/25 (68%), 19%, not calculated
tumour outcome (control, treated, inhibition, significance) (Dose [Inhibitor]: 0, 3 PPM (AS SELENIUM) IN DIET BEGINNING 2 WK PRIOR TO CARCINOGEN DOSE AND CONTINUING FOR DURATION OF STUDY (STUDY DURAT, Species: RAT, Strain/Sex: SPRAGUE-DAWLEY/FEMALE, Target Tissue: Type of Lesion: MAMMARY GLAND: ADENOCARCINOMA, Dose [Carcinogen]: 10 MG ONCE AT 55 D OF AGE): 88%, 52%, 41%, p<0.05
tumour outcome (control, treated, inhibition, significance) (Dose [Inhibitor]: 0, 3 UG/ML IN DRINKING WATER FROM 40-90 D OF AGE THEN 0, 2 UG/ML FROM 90-180 D OF AGE AND 0, 1 UG/ML FROM 180-240 D OF A, Dose [Inhibitor]: 0, 3 UG/ML IN DRINKING WATER FROM 40-90 D OF AGE THEN 0, 2 UG/ML FROM 90-180 D OF AGE AND 0, 1 UG/ML FROM 180-240 D OF A, Species: RAT, Strain/Sex: SPRAGUE DAWLEY/FEMALE, Target Tissue: Type of Lesion: MAMMARY GLAND: ADENOCARCINOMA, FIBROADENOMA, Dose [Carcinogen]: 5 MG IN 0.2 ML SESAME OIL 1/2 D FOR 12 D BEGINNING AT 50 D OF AGE): 100%, 52%, 48%, p<0.001
tumour outcome (control, treated, inhibition, significance) (Dose [Inhibitor]: 0, 4 PPM IN DRINKING WATER BEGINNING 2 WK PRIOR TO CARCINOGEN DOSE AND CONTINUING FOR 1 WK POST CARCINOGEN DOSE (STUDY D, Species: RAT, Strain/Sex: SPRAGUE-DAWLEY/FEMALE, Target Tissue: Type of Lesion: MAMMARY GLAND: TUMOR, Dose [Carcinogen]: 10 MG IN 1 ML OLIVE OIL ONCE AT 7 WK OF AGE): 19/21 (91%), 19/21 (91%), 0%
tumour outcome (control, treated, inhibition, significance) (Dose [Inhibitor]: 0, 4 UG/G IN DIET BEGINNING 2 WK PRIOR TO CARCINOGEN DOSE AND CONTINUING FOR 2 WK POST CARCINOGEN DOSE FOLLOWED BY BASAL, Species: RAT, Strain/Sex: SPRAGUE-DAWLEY/FEMALE, Target Tissue: Type of Lesion: MAMMARY GLAND: TUMOR, Dose [Carcinogen]: 5 MG/KG): 52%, 10%, 81%, not calculated
tumour outcome (control, treated, inhibition, significance) (Dose [Inhibitor]: 0, 4 UG/G IN DIET BEGINNING 2 WK PRIOR TO CARCINOGEN DOSE AND CONTINUING FOR DURATION OF STUDY (STUDY DURATION: 43 WK), Species: RAT, Strain/Sex: SPRAGUE-DAWLEY/FEMALE, Target Tissue: Type of Lesion: MAMMARY GLAND: TUMOR, Dose [Carcinogen]: 5 MG/KG): 52%, 5%, 90%, not calculated
tumour outcome (control, treated, inhibition, significance) (Dose [Inhibitor]: 0.2, 2 PPM IN DIET BEGINNING 3 D PRIOR TO CARCINOGEN DOSE AND CONTINUING FOR 8 MO (STUDY DURATION: 8 MO), Species: MOUSE, Strain/Sex: BALB/FEMALE, Target Tissue: Type of Lesion: MAMMARY GLAND: ADENOCARCINOMA, Dose [Carcinogen]: 1 MG/WK FOR 6 WK): 12/31 (39%), 4/34 (12%), 69%, p<0.025
tumour outcome (control, treated, inhibition, significance) (Dose [Inhibitor]: 0.5 PPM IN 5% CORN OIL DIET DAILY STARTING 29 D BEFORE CARCINOGEN TREATMENT AND CONTINUING FOR DURATION OF STUDY (STUDY, Species: RAT, Strain/Sex: SPRAGUE-DAWLEY/FEMALE, Target Tissue: Type of Lesion: MAMMARY GLAND: ADENOCARCINOMA, Dose [Carcinogen]: 5 MG IN CORN OIL ONCE AT 50 D OF AGE): 12/30 (40%), 11/30 (37%), 8%, not significant
tumour outcome (control, treated, inhibition, significance) (Dose [Inhibitor]: 0.5 PPM IN 25% CORN OIL DIET DAILY STARTING 29 D BEFORE CARCINOGEN TREATMENT AND CONTINUING FOR DURATION OF STUDY (STUDY, Species: RAT, Strain/Sex: SPRAGUE-DAWLEY/FEMALE, Target Tissue: Type of Lesion: MAMMARY GLAND: ADENOCARCINOMA, Dose [Carcinogen]: 5 MG IN CORN OIL ONCE AT 50 D OF AGE): 21/30 (70%), 20/29 (69%), 1%, not significant
tumour outcome (control, treated, inhibition, significance) (Dose [Inhibitor]: 0.5 PPM IN DIET DAILY STARTING 1 WK PRIOR TO CARCINOGEN TREATMENT AND CONTINUING FOR DURATION OF STUDY (STUDY DURATION:, Species: MOUSE, Strain/Sex: BD2F1/FEMALE, Target Tissue: Type of Lesion: MAMMARY GLAND: TUMOR, Dose [Carcinogen]: 1 MG IN 0.2 ML COTTONSEED OIL 1/WK FOR 6 WK STARTING AT 8 WK OF AGE): 18/32 (56%), 10/33 (30%), 46%, not calculated
